System: FPS and molecular pathways
Assay: Modulation of FPS and molecular pathways in hepatic transcriptome (RNA-Seq, CES/GSEI) in CENTAUR trial biopsies
Type: in vivo, human
From the text: Archived formalin-fixed liver tissues from index biopsy were used for histological assessment in all patients (FIG. 1 and Table 1A-11) to confirm no to minimal fibrosis (METAVIR fibrosis stage F0 or F1). The PLS validation set 1 (and FPS derivation set 1) is a case-control series of 43 chronic hepatitis C patients from a prior cohort study consecutively diagnosed and followed at Johns Hopkins and Massachusetts General Hospital between 1998 and 2010. Twenty-five patients were co-infected with HIV and on anti-retroviral therapies. The patients were regularly followed up with ultrasound elastography at median interval of 1.1 (IQR: 0.6-2.0) years. Liver stiffness measurement >7.0 and >9.5 kPa were regarded as indication of F2 and F3 fibrosis, respectively. The PLS validation set 2 (and FPS derivation set 2) is a case-control series of 38 patients who consecutively underwent liver transplantation for HCV-related cirrhosis and protocol liver biopsies at year 1, 2, and 5 after transplantation (and additional biopsies as needed to evaluate graft rejection, which were excluded) at Baylor University between 2002 and 2007. Median number of biopsies was 8 (IQR: 6-9) per patient with median interval between serial biopsies of 8.6 (IQR: 0.3-12.6) months. […] The FPS derivation set 3 is a cross-sectional series of 31 NAFLD patients who underwent diagnostic liver biopsy at Hiroshima University between 2003 and 2015. The FPS derivation set 4 is a cross-sectional series of 309 NAFLD patients who underwent diagnostic liver biopsy (F0 or F1 fibrosis) at Massachusetts General Hospital between 2009 and 2016. […] The cases were defined as patients who had F-stage increase of one stage or more in the follow-up biopsy. The FPS validation set 2 includes 78 patients with fibrotic liver diseases from various etiologies, for which de-identified fresh liver tissues were available from standard-care hepatic resection for organotypic ex vivo tissue culture at University of Texas Southwestern and Mount Sinai. The FPS validation set 3 consists of NASH patients with F1-F3 fibrosis who underwent liver biopsy before and after 1-year treatment with cenicriviroc (n=9) or placebo (n=10) in the phase Ilb CENTAUR trial (NCT02217475). Decrease of one or more fibrosis stage was regarded as anti-fibrotic response. The serum surrogate FPS was assessed in archived de-identified serum samples from 79 patients with chronic liver diseases. The FPSec validation set is a cohort of 122 patients with compensated (Child-Pugh class A) cirrhosis patients with mixed etiologies enrolled at University of Michigan between 2004 and 2006 as reported in our previous study. Hepatic decompensation was defined as newly developed massive ascites, hepatic encephalopathy, bleeding from gastroesophageal varices, or liver transplantation. The study was approved by institutional review board at respective institutions with written informed consent or exemption for use of archived de-identified samples (protocol numbers: STU062018-058, STU072018-071, 2010P000220/PHS, HS13-00159).
Total RNA was isolated from fixed tissue sections by using High Pure RNA Paraffin kit (Roche), and assessed for quality by qRT-PCR of RPL13A. Total RNA from the PCLS tissues was isolated using RNeasy kit (Qiagen). RNA samples (100-200 ng) were subjected to the PLS/FPS assay implemented in the nCounter platform (NanoString), and transcriptome profiling of the CENTAUR trial samples was performed by RNA-Seq (TrueSeq RNA Access, Illumina). Expression of BCL2, COL1A1, and ACTA2 genes was measured by qRT-PCR (Table 3). Serum protein profiling was performed by using xMAP assay (Luminex). […]

[1] = Fibrosis improved, NASH patients, Hallmark set, Cell cycle, DNA damage, response
[2] = Fibrosis improved, NASH patients, Hallmark set, Cellular signaling
[3] = Fibrosis improved, NASH patients, Hallmark set, Inflammatory response, immunity
[4] = Fibrosis improved, NASH patients, Hallmark set, Metabolism, biosynthesis
[5] = Fibrosis improved, NASH patients, Hallmark set, Pathogenic response
[6] = Fibrosis improved, NASH patients, Hallmark set, Sex hormone signaling
[7] = Fibrosis improved, NASH patients, Hallmark set, Stress response
[8] = Fibrosis improved, NASH patients, Immune cell signature (GSE65136)
[9] = Fibrosis improved, NASH patients, Nuclear receptor signaling (curated pathway members)
[10] = Fibrosis improved, NASH patients, PPAR agonists on mouse primary hepatocytes (GSE27948)
[11] = Fibrosis not improved, NASH patients, Hallmark set, Cell cycle, DNA damage, response

## CCCCOCCOc1ccc(-c2ccc3c(c2)/C=C(/C(=O)Nc2ccc([S@@+]([O-])Cc4cncn4CCC)cc2)CCCN3CC(C)C)cc1 [Cenicriviroc]
1-year cenicriviroc treatment
  modulation of TGF-β and PDGFRB pathways: unchanged
CENTAUR trial, 1-year treatment, paired pre/post biopsies
  proportion of patients with substantial CES reduction (FPS response): 22%
[1]
  NES, DNA repair gene set: 1.44
  NES, G2M checkpoint gene set: −1.33
  NES, Mitotic spindle gene set: −1.61
Fibrosis improved, NASH patients, Hallmark set, Cell death
  NES, Apoptosis gene set: 1.32
[2]
  NES, E2F targets gene set: −1.36
  NES, Hedgehog signaling gene set: −0.65
  NES, KRAS signaling gene set: 1.31
  NES, Myc targets v1 gene set: 1.56
  NES, Myc targets v2 gene set: 1.26
  NES, Notch signaling gene set: 1.00
  NES, PI3K/AKT/mTOR signaling gene set: 0.91
  NES, TGFβ signaling gene set: 0.81
  NES, TNFα signaling via NF-κB gene set: 0.96
  NES, Wnt/β-catenin signaling gene set: −1.07
  NES, mTORC1 signaling gene set: 1.71
  NES, p53 pathway gene set: 1.00
[3]
  NES, Allograft rejection gene set: 1.83
  NES, IL2 STAT5 signaling gene set: 0.89
  NES, IL6 JAK STAT3 signaling gene set: 0.95
  NES, Inflammatory response gene set: 1.38
  NES, Interferon-α response gene set: 2.12
  NES, Interferon-γ response gene set: 2.07
[4]
  NES, Adipogenesis gene set: 1.60
  NES, Bile acid metabolism gene set: 1.62
  NES, Cholesterol homeostasis gene set: 1.19
  NES, Coagulation gene set: 1.57
  NES, Complement gene set: 2.07
  NES, Fatty acid metabolism gene set: 2.22
  NES, Glycolysis gene set: 1.10
  NES, Heme metabolism gene set: −0.98
  NES, Oxidative phosphorylation gene set: 2.49
  NES, Peroxisome gene set: 1.49
  NES, Protein secretion gene set: 1.57
  NES, Xenobiotic metabolism gene set: 1.66
[5]
  NES, Angiogenesis gene set: 1.47
  NES, Epithelial mesenchymal transition gene set: 1.41
[6]
  NES, Androgen response gene set: 1.52
  NES, Estrogen response early gene set: −0.79
  NES, Estrogen response late gene set: 1.12
[7]
  NES, Hypoxia gene set: 0.97
  NES, Myogenesis gene set: −0.95
  NES, Reactive oxygen species gene set: 1.07
  NES, UV response up gene set: 1.12
  NES, Unfolded protein response gene set: 1.34
[8]
  NES, B cell (naïve) gene set: −0.52
  NES, CD4 T cell (naïve) gene set: −0.57
  NES, CD8 T cell gene set: 1.13
  NES, DC (activate) gene set: 1.35
  NES, Gamma delta T cell gene set: 1.09
  NES, Macrophage (M1) gene set: 1.42
  NES, Macrophage (M2) gene set: 2.66
  NES, Mast cell (active) gene set: 1.22
  NES, Mast cell (rest) gene set: −1.59
  NES, Memory B cell gene set: −0.72
  NES, Memory T cell (rest) gene set: 0.80
  NES, Monocyte gene set: 2.81
  NES, NK cell (rest) gene set: 1.12
  NES, Neutrophil gene set: 1.87
  NES, Plasma cell gene set: 0.98
  NES, Regulatory T cell gene set: −0.99
  NES, T follicular helper cell gene set: 1.22
[9]
  NES, FXR pathway gene set: −1.06
  NES, PPAR signaling gene set (first listed): 1.81
  NES, PPAR signaling gene set (second listed): 1.70
  NES, PPARα pathway gene set (first listed): 1.55
  NES, PPARα pathway gene set (second listed): 0.92
  NES, RAR/RXR pathway gene set: −1.50
  NES, RXR/VDR pathway gene set: −1.10
Fibrosis improved, NASH patients, PPAR agonist on human primary hepatocytes (GSE53399)
  NES, GW7647 (PPARa agonist) gene set: 1.84
[10]
  NES, GW501516 (PPARd agonist) gene set: 1.16
  NES, ROSIGLITAZONE (PPARg agonist) gene set: 1.36
  NES, WY14643 (PPARa agonist) gene set: 1.56
Fibrosis improved, NASH patients, iLINCS
  NES, PDGFRB target gene signature: −0.83
[11]
  NES, DNA repair gene set: 0.85
  NES, G2M checkpoint gene set: 2.00
